In PubChem BioAssay (NCI):
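48-hour exposure; five concentrations; linearly interpolated endpoints. At the GI50, growth is halved. The concentration for full growth arrest is given as TGI.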

Experiments:
Assay in all cases: DTP human tumour cell line panel, 48 h
SN12C renal = tested on: SN12C renal
OVCAR-5 ovarian = tested on: OVCAR-5 ovarian
SF-268 CNS = tested on: SF-268 CNS
MDA-MB-435 = tested on: MDA-MB-435
UO-31 renal = tested on: UO-31 renal
SK-MEL-5 melanoma = tested on: SK-MEL-5 melanoma
CCRF-CEM leukemia = tested on: CCRF-CEM leukemia
PC-3 prostate = tested on: PC-3 prostate
T-47D breast = tested on: T-47D breast
HS 578T breast = tested on: HS 578T breast
NCI-H522 lung = tested on: NCI-H522 lung
NCI/ADR-RES ovarian = tested on: NCI/ADR-RES ovarian
IGROV1 ovarian = tested on: IGROV1 ovarian
RXF 393 renal = tested on: RXF 393 renal
MALME-3M melanoma = tested on: MALME-3M melanoma
ACHN renal = tested on: ACHN renal
UACC-62 melanoma = tested on: UACC-62 melanoma
OVCAR-3 ovarian = tested on: OVCAR-3 ovarian
COLO 205 colon = tested on: COLO 205 colon
LOX IMVI melanoma = tested on: LOX IMVI melanoma
OVCAR-4 ovarian = tested on: OVCAR-4 ovarian
U251 CNS = tested on: U251 CNS
SNB-75 CNS = tested on: SNB-75 CNS
SK-MEL-2 melanoma = tested on: SK-MEL-2 melanoma
MOLT-4 leukemia = tested on: MOLT-4 leukemia
BT-549 breast = tested on: BT-549 breast
HCC-2998 colon = tested on: HCC-2998 colon
NCI-H460 lung = tested on: NCI-H460 lung
A498 renal = tested on: A498 renal
TK-10 renal = tested on: TK-10 renal
MCF7 breast = tested on: MCF7 breast
SW-620 colon = tested on: SW-620 colon
SF-539 CNS = tested on: SF-539 CNS
MDA-MB-231 breast = tested on: MDA-MB-231 breast
SR leukemia = tested on: SR leukemia
HCT-116 colon = tested on: HCT-116 colon
NCI-H23 lung = tested on: NCI-H23 lung
UACC-257 melanoma = tested on: UACC-257 melanoma
HL-60(TB) leukemia = tested on: HL-60(TB) leukemia
HOP-92 NSCLC = tested on: HOP-92 NSCLC
786-0 renal = tested on: 786-0 renal
RPMI-8226 leukemia = tested on: RPMI-8226 leukemia
A549 NSCLC = tested on: A549 NSCLC
HCT-15 colon = tested on: HCT-15 colon
CAKI-1 renal = tested on: CAKI-1 renal
KM12 colon = tested on: KM12 colon
DU-145 prostate = tested on: DU-145 prostate
SK-MEL-28 melanoma = tested on: SK-MEL-28 melanoma
M14 melanoma = tested on: M14 melanoma
EKVX NSCLC = tested on: EKVX NSCLC
SF-295 CNS = tested on: SF-295 CNS
SNB-19 CNS = tested on: SNB-19 CNS
NCI-H226 lung = tested on: NCI-H226 lung
HOP-62 NSCLC = tested on: HOP-62 NSCLC
HT29 colon = tested on: HT29 colon
K-562 leukemia = tested on: K-562 leukemia
SK-OV-3 ovarian = tested on: SK-OV-3 ovarian
OVCAR-8 ovarian = tested on: OVCAR-8 ovarian

Work on `CCCn1cnc2c(c1=N)C(c1ccc(OC)cc1)c1sc3c(CC)cccc3c1O2` (stereo not given) yielded a GI50 (SN12C renal) of 867 nM, a TGI (SN12C renal) of 7600 nM and a GI50 (OVCAR-5 ovarian) of 2590 nM. For the same compound, the TGI (OVCAR-5 ovarian) was 17900 nM, the GI50 (SF-268 CNS) was 702 nM and the TGI (SF-268 CNS) was 26100 nM. The GI50 (MDA-MB-435) was 196 nM, the TGI (MDA-MB-435) was 479 nM and the GI50 (UO-31 renal) was 714 nM. It also gave a TGI (UO-31 renal) of 29900 nM, a GI50 (SK-MEL-5 melanoma) of 578 nM and a TGI (SK-MEL-5 melanoma) of 7280 nM. For the same compound, the GI50 (CCRF-CEM leukemia) was 421 nM, the GI50 (PC-3 prostate) was 551 nM and the TGI (PC-3 prostate) was 16900 nM. It also gave a GI50 (T-47D breast) of 518 nM, a TGI (T-47D breast) of over 49200 nM and a GI50 (HS 578T breast) of 384 nM. For the same compound, the TGI (HS 578T breast) was 5760 nM, the GI50 (NCI-H522 lung) was 346 nM and the TGI (NCI-H522 lung) was 4940 nM. It also gave a GI50 (NCI/ADR-RES ovarian) of 389 nM, a TGI (NCI/ADR-RES ovarian) of 10000 nM and a GI50 (IGROV1 ovarian) of 612 nM. The TGI (IGROV1 ovarian) was 29400 nM, the GI50 (RXF 393 renal) was 272 nM and the TGI (RXF 393 renal) was 883 nM. The GI50 (MALME-3M melanoma) was 726 nM, the TGI (MALME-3M melanoma) was 21700 nM and the GI50 (ACHN renal) was 725 nM. The TGI (ACHN renal) was 17700 nM, the GI50 (UACC-62 melanoma) was 422 nM and the TGI (UACC-62 melanoma) was 19100 nM. The GI50 (OVCAR-3 ovarian) was 378 nM, the TGI (OVCAR-3 ovarian) was 2970 nM and the GI50 (COLO 205 colon) was 844 nM. The TGI (COLO 205 colon) was 8270 nM, the GI50 (LOX IMVI melanoma) was 685 nM and the TGI (LOX IMVI melanoma) was 5430 nM. It also gave a GI50 (OVCAR-4 ovarian) of 1350 nM, a TGI (OVCAR-4 ovarian) of 23500 nM and a GI50 (U251 CNS) of 438 nM. It also gave a TGI (U251 CNS) of 12500 nM, a GI50 (SNB-75 CNS) of 220 nM and a TGI (SNB-75 CNS) of 1090 nM. It also gave a GI50 (SK-MEL-2 melanoma) of 608 nM, a TGI (SK-MEL-2 melanoma) of 14700 nM and a GI50 (MOLT-4 leukemia) of 505 nM. The TGI (MOLT-4 leukemia) was 5780 nM, the GI50 (BT-549 breast) was 691 nM and the TGI (BT-549 breast) was 16000 nM. It also gave a GI50 (HCC-2998 colon) of 1300 nM, a TGI (HCC-2998 colon) of 6600 nM and a GI50 (NCI-H460 lung) of 378 nM. It also gave a TGI (NCI-H460 lung) of 4450 nM, a GI50 (A498 renal) of 334 nM and a TGI (A498 renal) of 1410 nM. It also gave a GI50 (TK-10 renal) of 5130 nM, a TGI (TK-10 renal) of 32400 nM and a GI50 (MCF7 breast) of 345 nM. It also gave a TGI (MCF7 breast) of 11600 nM, a GI50 (SW-620 colon) of 515 nM and a TGI (SW-620 colon) of 14800 nM. The GI50 (SF-539 CNS) was 334 nM, the TGI (SF-539 CNS) was 1400 nM and the GI50 (MDA-MB-231 breast) was 1360 nM. The TGI (MDA-MB-231 breast) was 13000 nM, the GI50 (SR leukemia) was 319 nM and the TGI (SR leukemia) was 3230 nM. For the same compound, the GI50 (HCT-116 colon) was 382 nM, the TGI (HCT-116 colon) was 4770 nM and the GI50 (NCI-H23 lung) was 1270 nM. The TGI (NCI-H23 lung) was 18100 nM, the GI50 (UACC-257 melanoma) was 15000 nM and the TGI (UACC-257 melanoma) was over 100000 nM. The GI50 (HL-60(TB) leukemia) was 279 nM, the TGI (HL-60(TB) leukemia) was 1030 nM and the GI50 (HOP-92 NSCLC) was 1190 nM. For the same compound, the TGI (HOP-92 NSCLC) was 11200 nM, the GI50 (786-0 renal) was 534 nM and the TGI (786-0 renal) was 12800 nM. It also gave a GI50 (RPMI-8226 leukemia) of 375 nM, a TGI (RPMI-8226 leukemia) of 2560 nM and a GI50 (A549 NSCLC) of 827 nM. The TGI (A549 NSCLC) was 20900 nM, the GI50 (HCT-15 colon) was 441 nM and the TGI (HCT-15 colon) was 6210 nM. It also gave a GI50 (CAKI-1 renal) of 476 nM, a TGI (CAKI-1 renal) of 20600 nM and a GI50 (KM12 colon) of 445 nM. For the same compound, the TGI (KM12 colon) was 24900 nM, the GI50 (DU-145 prostate) was 665 nM and the TGI (DU-145 prostate) was 13700 nM. The GI50 (SK-MEL-28 melanoma) was 2140 nM, the TGI (SK-MEL-28 melanoma) was 36700 nM and the GI50 (M14 melanoma) was 389 nM. The TGI (M14 melanoma) was 6180 nM, the GI50 (EKVX NSCLC) was 941 nM and the TGI (EKVX NSCLC) was 20000 nM. The GI50 (SF-295 CNS) was 392 nM, the TGI (SF-295 CNS) was 7240 nM and the GI50 (SNB-19 CNS) was 478 nM. For the same compound, the TGI (SNB-19 CNS) was 14600 nM, the GI50 (NCI-H226 lung) was 964 nM and the TGI (NCI-H226 lung) was 11200 nM. For the same compound, the GI50 (HOP-62 NSCLC) was 553 nM, the TGI (HOP-62 NSCLC) was 14800 nM and the GI50 (HT29 colon) was 512 nM. For the same compound, the TGI (HT29 colon) was 9090 nM, the GI50 (K-562 leukemia) was 338 nM and the TGI (K-562 leukemia) was over 31600 nM. The GI50 (SK-OV-3 ovarian) was 818 nM, the TGI (SK-OV-3 ovarian) was 26900 nM and the GI50 (OVCAR-8 ovarian) was 1010 nM. For the same compound, the TGI (OVCAR-8 ovarian) was 15800 nM.
